Experimental data from PubChem BioAssay AID248 (DTP/NCI, 2004).
Several values for one entry are separate records, joined by “and”; a condition that tells them apart may be missing. Identical values can stand only once. Inconclusive results and toxic doses are left out. Rule as the data show it: active = T/C of 150% or more; inactive = T/C below 125%.

Test system: L1210 leukemia ip in BDF1 mice, survival T/C
Test: NCI In Vivo Anticancer Drug Screen. Data for tumor model L1210 Leukemia (intraperitoneal) in B6D2F1 (BDF1) mice
Settings: endpoint: mean survival time, higher = longer survival
How it was run: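 Tumor was transplanted into mice, which were then dosed with test compound or vehicle alone. Survival was recorded for each group, and the treated figure was expressed relative to the control figure.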

[1] = dose: 100.0 mg/kg/injection, schedule: Q01DX009 (ip), vehicle: saline with Tween-80
[2] = dose: 100.0 mg/kg/injection, schedule: Q04DX003 (ip), vehicle: saline with Tween-80
[3] = dose: 200.0 mg/kg/injection, schedule: Q01DX009 (ip), vehicle: saline with Tween-80
[4] = dose: 200.0 mg/kg/injection, schedule: Q04DX003 (ip), vehicle: saline with Tween-80
[5] = dose: 400.0 mg/kg/injection, schedule: Q01DX009 (ip), vehicle: saline with Tween-80
[6] = dose: 100.0 mg/kg/injection, schedule: Q01DX009 (ip), vehicle: Klucel (hydroxypropylcellulose) (HPC)
[7] = dose: 200.0 mg/kg/injection, schedule: Q01DX009 (ip), vehicle: Klucel (hydroxypropylcellulose) (HPC)
[8] = dose: 400.0 mg/kg/injection, schedule: Q01DX009 (ip), vehicle: Klucel (hydroxypropylcellulose) (HPC)
[9] = dose: 50.0 mg/kg/injection, schedule: Q01DX001 (ip), vehicle: carboxymethylcellulose (CMC)
[10] = dose: 100.0 mg/kg/injection, schedule: Q01DX001 (ip), vehicle: carboxymethylcellulose (CMC)
[11] = dose: 200.0 mg/kg/injection, schedule: Q01DX001 (ip), vehicle: carboxymethylcellulose (CMC)
[12] = dose: 400.0 mg/kg/injection, schedule: Q01DX001 (ip), vehicle: carboxymethylcellulose (CMC)
[13] = dose: 400.0 mg/kg/injection, schedule: Q04DX003 (ip), vehicle: saline with Tween-80
[14] = dose: 50.0 mg/kg/injection, schedule: Q01DX009 (ip), vehicle: saline with Tween-80

Measured: T/C

CCOCN(C)C
inactive: dose: 25.0 mg/kg/injection, schedule: Q01DX001 (ip), vehicle: saline 103 % of control | dose: 25.0 mg/kg/injection, schedule: Q01DX009 (ip), vehicle: saline 103 % of control | dose: 25.0 mg/kg/injection, schedule: Q04DX003 (ip), vehicle: saline 100 % of control | dose: 44.0 mg/kg/injection, schedule: Q01DX009 (ip), vehicle: saline 110 % of control | dose: 50.0 mg/kg/injection, schedule: Q01DX001 (ip), vehicle: saline 94 % of control | dose: 50.0 mg/kg/injection, schedule: Q01DX009 (ip), vehicle: saline 105 % of control | dose: 50.0 mg/kg/injection, schedule: Q04DX003 (ip), vehicle: saline 100 % of control | dose: 66.0 mg/kg/injection, schedule: Q01DX009 (ip), vehicle: saline 103 % of control | dose: 100.0 mg/kg/injection, schedule: Q01DX001 (ip), vehicle: saline 97 % of control and 107 % of control | dose: 100.0 mg/kg/injection, schedule: Q01DX009 (ip), vehicle: saline 97 % of control | dose: 100.0 mg/kg/injection, schedule: Q04DX003 (ip), vehicle: saline 105 % of control

Cc1cccc(NC=O)c1
inactive: [1] 100 % of control | [2] 97 % of control | [3] 98 % of control | [4] 102 % of control | [5] 99 % of control

CCc1c[n+]([O-])c(C)cc1C(=O)O
inactive: [6] 92 % of control | dose: 100.0 mg/kg/injection, schedule: Q04DX003 (ip), vehicle: Klucel (hydroxypropylcellulose) (HPC) 97 % of control | [7] 92 % of control | dose: 200.0 mg/kg/injection, schedule: Q04DX003 (ip), vehicle: Klucel (hydroxypropylcellulose) (HPC) 95 % of control | [8] 92 % of control | dose: 400.0 mg/kg/injection, schedule: Q04DX003 (ip), vehicle: Klucel (hydroxypropylcellulose) (HPC) 95 % of control

CCCCOCCCNC1=C(Cl)C(=O)c2ccccc2C1=O
inactive: dose: 12.5 mg/kg/injection, schedule: Q01DX001 (ip), vehicle: carboxymethylcellulose (CMC) 92 % of control | dose: 25.0 mg/kg/injection, schedule: Q01DX001 (ip), vehicle: carboxymethylcellulose (CMC) 96 % of control | [9] 105 % of control

CC(CC(=O)OCC(F)(F)C(F)(F)C(F)(F)C(F)F)CC(=O)OCC(F)(F)C(F)(F)C(F)(F)C(F)F
inactive: [9] 96 % of control | [10] 100 % of control | [11] 96 % of control | [12] 91 % of control

C=CC(=O)N1CCOCC1
inactive: [2] 113 % of control | [4] 100 % of control | [13] 108 % of control

COc1ccc(C(=O)C(C)CC(=O)O)cc1OC (configuration not stated)
inactive: dose: 75.0 mg/kg/injection, schedule: Q01DX009 (ip), vehicle: Klucel (hydroxypropylcellulose) (HPC) 102 % of control | dose: 150.0 mg/kg/injection, schedule: Q01DX009 (ip), vehicle: Klucel (hydroxypropylcellulose) (HPC) 94 % of control | dose: 300.0 mg/kg/injection, schedule: Q01DX009 (ip), vehicle: Klucel (hydroxypropylcellulose) (HPC) 91 % of control

O=[N+]([O-])c1ccc2c(c1)-c1ccccc1C2Cl (configuration not stated)
inactive: dose: 100.0 mg/kg/injection, schedule: Q01DX005 (ip), vehicle: Klucel (hydroxypropylcellulose) (HPC) 94 % of control | dose: 100.0 mg/kg/injection, schedule: Q04DX002 (ip), vehicle: Klucel (hydroxypropylcellulose) (HPC) 111 % of control | dose: 200.0 mg/kg/injection, schedule: Q01DX005 (ip), vehicle: Klucel (hydroxypropylcellulose) (HPC) 91 % of control | dose: 200.0 mg/kg/injection, schedule: Q04DX002 (ip), vehicle: Klucel (hydroxypropylcellulose) (HPC) 101 % of control | dose: 400.0 mg/kg/injection, schedule: Q01DX005 (ip), vehicle: Klucel (hydroxypropylcellulose) (HPC) 88 % of control | dose: 400.0 mg/kg/injection, schedule: Q04DX002 (ip), vehicle: Klucel (hydroxypropylcellulose) (HPC) 96 % of control

O=C(Nc1cccc(O)c1)c1ccccc1Cl
inactive: [6] 96 % of control | [7] 97 % of control | [8] 92 % of control

CCCCN=C([Se])NCCCC
inactive: dose: 15.0 mg/kg/injection, schedule: Q01DX015 (ip), vehicle: carboxymethylcellulose (CMC) 103 % of control | dose: 30.0 mg/kg/injection, schedule: Q01DX015 (ip), vehicle: carboxymethylcellulose (CMC) 96 % of control | dose: 60.0 mg/kg/injection, schedule: Q01DX015 (ip), vehicle: carboxymethylcellulose (CMC) 97 % of control

CCCCCCCCCCCCCCCCOP(=O)(O)OCCCCCCCCCCCCCCCC
inactive: [14] 98 % of control | [1] 91 % of control | [2] 105 % of control | [3] 89 % of control | [4] 90 % of control | [5] 93 % of control | [13] 95 % of control

O=C(Nc1cccc(Cl)c1)OCC#CCN1CCCC1
inactive: dose: 5.0 mg/kg/injection, schedule: Q01DX001 (ip), vehicle: saline 105 % of control | dose: 9.0 mg/kg/injection, schedule: Q01DX001 (ip), vehicle: saline 95 % of control and 101 % of control | dose: 10.0 mg/kg/injection, schedule: Q01DX001 (ip), vehicle: saline 105 % of control | dose: 13.0 mg/kg/injection, schedule: Q01DX001 (ip), vehicle: saline 97 % of control and 104 % of control | dose: 20.0 mg/kg/injection, schedule: Q01DX001 (ip), vehicle: saline 98 % of control and 101 % of control | dose: 30.0 mg/kg/injection, schedule: Q01DX001 (ip), vehicle: saline 98 % of control and 101 % of control | dose: 40.0 mg/kg/injection, schedule: Q01DX001 (ip), vehicle: saline 101 % of control | dose: 80.0 mg/kg/injection, schedule: Q01DX001 (ip), vehicle: saline 111 % of control

N=c1sc2ccccc2n1CC(=O)O
inactive: dose: 25.0 mg/kg/injection, schedule: Q01DX001 (ip), vehicle: saline with Tween-80 92 % of control | dose: 50.0 mg/kg/injection, schedule: Q01DX001 (ip), vehicle: saline with Tween-80 96 % of control | dose: 100.0 mg/kg/injection, schedule: Q01DX001 (ip), vehicle: saline with Tween-80 94 % of control

COc1ccc(C(=O)NC(=S)Nc2cccc([N+](=O)[O-])c2)cc1
inactive: [1] 95 % of control and 88 % of control | dose: 100.0 mg/kg/injection, schedule: Q04DX002 (ip), vehicle: saline 88 % of control | [3] 88 % of control and 89 % of control | dose: 200.0 mg/kg/injection, schedule: Q04DX002 (ip), vehicle: saline 91 % of control | [5] 103 % of control | dose: 400.0 mg/kg/injection, schedule: Q04DX002 (ip), vehicle: saline 98 % of control

CCC[CH2][Sn]([Cl])([CH2]CCC)[CH2]CCC
inactive: dose: 2.0 mg/kg/injection, schedule: Q01DX009 (ip), vehicle: saline 94 % of control | dose: 2.0 mg/kg/injection, schedule: Q04DX003 (ip), vehicle: saline 103 % of control | dose: 4.0 mg/kg/injection, schedule: Q01DX009 (ip), vehicle: saline 90 % of control | dose: 4.0 mg/kg/injection, schedule: Q04DX003 (ip), vehicle: saline 100 % of control | dose: 8.0 mg/kg/injection, schedule: Q01DX009 (ip), vehicle: saline 98 % of control | dose: 8.0 mg/kg/injection, schedule: Q04DX003 (ip), vehicle: saline 97 % of control

CCN(CC)CC#CCN(CC)CC
inactive: [14] 92 % of control | [1] 97 % of control | [2] 102 % of control | [4] 90 % of control

CN(C)c1ccc(C=Nc2cccc(O)c2)cc1
inactive: [10] 102 % of control | [11] 88 % of control | [12] 94 % of control

C[CH2][Ge]([CH2]C)[CH2]C.C[CH2][Ge]([CH2]C)[CH2]C.C[CH2][Ge]([CH2]C)[O][Ge]([CH2]C)[CH2]C
inactive: dose: 100.0 mg/kg/injection, schedule: Q04DX002 (ip), vehicle: saline with Tween-80 106 % of control | dose: 200.0 mg/kg/injection, schedule: Q04DX002 (ip), vehicle: saline with Tween-80 106 % of control | dose: 400.0 mg/kg/injection, schedule: Q04DX002 (ip), vehicle: saline with Tween-80 116 % of control

COc1ccc(Nc2nc(N)nc(CNc3ccc(C)cc3)n2)cc1
inactive: [2] 94 % of control | [4] 92 % of control | [13] 96 % of control

O/N=C(\CC(O)(C(F)(F)F)C(F)(F)F)c1cccs1
inactive: dose: 50.0 mg/kg/injection, schedule: Q04DX003 (ip), vehicle: saline with Tween-80 98 % of control | [2] 98 % of control | [4] 98 % of control | [13] 95 % of control

Cc1cc(C)cc(NC(=O)c2ccccc2N)c1
inactive: [2] 96 % of control | [4] 91 % of control | [13] 93 % of control
